Reference: patent publication US12599136B2, “Substituted isophthalic acid diamides and their use as herbicides” (Bayer Aktiengesellschaft, priority 2020, dated 2026)

How the values were obtained:
Format in all cases: in vivo
Abutilon theophrasti [1] = assay: Pre-emergence herbicidal action against ABUTH; conditions: visual score after 3 weeks vs untreated controls
How it was run: (§1)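 Pre-emergence soil-surface spray of formulated compound (WP or EC; 600 to 800 l/ha; 0.2% wetting agent) over seeds sown in sandy loam. After 3 weeks under greenhouse conditions, damage is estimated visually in percent against untreated plants.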

Alopecurus myosuroides [2] = assay: Pre-emergence herbicidal action against ALOMY; conditions: visual score after 3 weeks vs untreated controls
How it was run: as §1

Amaranthus retroflexus [3] = assay: Pre-emergence herbicidal action against AMARE; conditions: visual score after 3 weeks vs untreated controls
How it was run: as §1

Avena fatua [4] = assay: Pre-emergence herbicidal action against AVEFA; conditions: visual score after 3 weeks vs untreated controls
How it was run: as §1

Cyperus esculentus = assay: Pre-emergence herbicidal action against CYPES; conditions: visual score after 3 weeks vs untreated controls
Text: (§2) Seeds of monocotyledonous and dicotyledonous weed plants and crop plants are laid out in sandy loam soil in wood-fiber pots and covered with soil. The compounds of the invention, formulated in the form of wettable powders (WP) or as emulsion concentrates (EC), are then applied to the surface of the covering soil in the form of an aqueous suspension or emulsion at a water application rate equivalent to 600 to 800 l/ha, with addition of 0.2% wetting agent. After the treatment, the pots are placed in a greenhouse and kept under good growth conditions for the trial plants. The damage to the test plants is scored visually after a test period of 3 weeks by comparison with untreated controls (herbicidal activity in percent (%): 100% activity=the plants have died, 0% activity=like control plants). […] The tables below illustrate, in an illustrative manner, the post-emergence herbicidal action of the compounds of the invention, the herbicidal activity being stated in percent.

Echinochloa crus-galli [5] = assay: Pre-emergence herbicidal action against ECHCG; conditions: visual score after 3 weeks vs untreated controls
How it was run: as §1

Matricaria inodora [6] = assay: Pre-emergence herbicidal action against MATIN; conditions: visual score after 3 weeks vs untreated controls
How it was run: as §1

Pharbitis purpurea [7] = assay: Pre-emergence herbicidal action against PHBPU; conditions: 320 g/ha; visual score after 3 weeks vs untreated controls
Text: as §2

Lolium rigidum = assay: Pre-emergence herbicidal action against LOLRI; conditions: 320 g/ha
How it was run: as §1

Setaria viridis [8] = assay: Pre-emergence herbicidal action against SETVI
How it was run: as §1

Stellaria media [9] = assay: Pre-emergence herbicidal action against STEME
Text: as §2

Veronica persica [10] = assay: Pre-emergence herbicidal action against VERPE; conditions: 320 g/ha
How it was run: as §1

Viola tricolor [11] = assay: Pre-emergence herbicidal action against VIOTR
How it was run: as §1

Abutilon theophrasti [12] = assay: Post-emergence herbicidal action against ABUTH
How it was run: (§3)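 Greenhouse plants in sandy loam were sprayed at the one-leaf stage, 2 to 3 weeks after sowing, with WP or EC formulations as aqueous suspension or emulsion (600 to 800 l/ha water, 0.2% wetting agent). Visual damage was scored about 3 weeks later versus untreated controls, 0% = like control, 100% = dead.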

Alopecurus myosuroides [13] = assay: Post-emergence herbicidal action against ALOMY; conditions: 80 g/ha
How it was run: as §3

Amaranthus retroflexus [14] = assay: Post-emergence herbicidal action against AMARE; conditions: visual assessment about 3 weeks after treatment
How it was run: as §3

Avena fatua [15] = assay: Post-emergence herbicidal action against AVEFA; conditions: visual assessment about 3 weeks after treatment
How it was run: as §3

Echinochloa crus-galli [16] = assay: Post-emergence herbicidal action against ECHCG; conditions: visual assessment about 3 weeks after treatment
How it was run: as §3

Matricaria inodora [17] = assay: Post-emergence herbicidal action against MATIN; conditions: visual assessment about 3 weeks after treatment
How it was run: as §3

Pharbitis purpurea [18] = assay: Post-emergence herbicidal action against PHBPU; conditions: visual assessment about 3 weeks after treatment
How it was run: as §3

Setaria viridis [19] = assay: Post-emergence herbicidal action against SETVI; conditions: visual assessment about 3 weeks after treatment
How it was run: as §3

Stellaria media [20] = assay: Post-emergence herbicidal action against STEME; conditions: visual assessment about 3 weeks after treatment
Description: (§4) Seeds of monocotyledonous and dicotyledonous weed and crop plants are laid out in sandy loam soil in wood-fiber pots, covered with soil and cultivated in a greenhouse under good growth conditions. 2 to 3 weeks after sowing, the test plants are treated at the one-leaf stage. The compounds of the invention, formulated in the form of wettable powders (WP) or as emulsion concentrates (EC), are then sprayed onto the green parts of the plants in the form of an aqueous suspension or emulsion at a water application rate equivalent to 600 to 800 l/ha, with addition of 0.2% wetting agent. After the test plants have been left to stand in the greenhouse under optimal growth conditions for about 3 weeks, the action of the preparations is assessed visually in comparison to untreated controls (herbicidal action in percent (%): 100% activity=the plants have died, 0% activity=like control plants). […] The tables below illustrate, in an illustrative manner, the post-emergence herbicidal action of the compounds of the invention, the herbicidal activity being stated in percent.

Veronica persica [21] = assay: Post-emergence herbicidal action against VERPE; conditions: visual assessment about 3 weeks after treatment
How it was run: as §3

Viola tricolor [22] = assay: Post-emergence herbicidal action against VIOTR
How it was run: as §3

Hordeum murinum [23] = assay: Pre-emergence herbicidal action against HORMU; conditions: 320 g/ha; visual score after 3 weeks vs untreated controls
Text: as §2

Polygonum convolvulus = assay: Pre-emergence herbicidal action against POLCO; conditions: 320 g/ha
How it was run: as §1

Hordeum murinum [24] = assay: Post-emergence herbicidal action against HORMU; conditions: 80 g/ha
Description: as §4

[25] = Dosage column 320 g/ha (heading prints 3200 g/ha)

SMILES: CCCn1nnnc1NC(=O)c1ccc(C(F)(F)F)c(C(=O)N(C)CC2CC2)c1Cl [Example 3-126]
- Pre-emergence action against ABUTH (Abutilon theophrasti [1]; 20 g/ha): 100%
- Pre-emergence action against ABUTH (Abutilon theophrasti [1]; 80 g/ha): 100%
- Pre-emergence action against ABUTH (Abutilon theophrasti [1]; [25]): 100%
- Pre-emergence action against ALOMY (Alopecurus myosuroides [2]; 320 g/ha): 90%
- Pre-emergence action against AMARE (Amaranthus retroflexus [3]; 20 g/ha): 90%
- Pre-emergence action against AMARE (Amaranthus retroflexus [3]; 80 g/ha): 100%
- Pre-emergence action against AMARE (Amaranthus retroflexus [3]; 320 g/ha): 100%
- Pre-emergence action against AVEFA (Avena fatua [4]; 320 g/ha): 100%
- Pre-emergence action against CYPES (Cyperus esculentus; 80 g/ha): 100%
- Pre-emergence action against CYPES (Cyperus esculentus; 320 g/ha): 100%
- Pre-emergence action against ECHCG (Echinochloa crus-galli [5]; 320 g/ha): 80%
- Pre-emergence action against MATIN (Matricaria inodora [6]; 80 g/ha): 90%
- Pre-emergence action against MATIN (Matricaria inodora [6]; 320 g/ha): 100%
- Pre-emergence action against PHBPU (Pharbitis purpurea [7]): 80%
- Pre-emergence action against LOLRI (Lolium rigidum): 80%
- Pre-emergence action against SETVI (Setaria viridis [8]; 80 g/ha): 80%
- Pre-emergence action against SETVI (Setaria viridis [8]; 320 g/ha): 100%
- Pre-emergence action against STEME (Stellaria media [9]; 20 g/ha): 80%
- Pre-emergence action against STEME (Stellaria media [9]; 80 g/ha): 80%
- Pre-emergence action against STEME (Stellaria media [9]; 320 g/ha): 100%
- Pre-emergence action against VERPE (Veronica persica [10]): 90%
- Pre-emergence action against VIOTR (Viola tricolor [11]; 80 g/ha): 90%
- Pre-emergence action against VIOTR (Viola tricolor [11]; 320 g/ha): 100%
- Post-emergence action against ABUTH (Abutilon theophrasti [12]; 5 g/ha): 100%
- Post-emergence action against ABUTH (Abutilon theophrasti [12]; 20 g/ha): 100%
- Post-emergence action against ABUTH (Abutilon theophrasti [12]; 80 g/ha): 100%
- Post-emergence action against ALOMY (Alopecurus myosuroides [13]): 80%
- Post-emergence action against AMARE in % (Amaranthus retroflexus [14]; 5 g/ha): 100%
- Post-emergence action against AMARE in % (Amaranthus retroflexus [14]; 20 g/ha): 100%
- Post-emergence action against AMARE in % (Amaranthus retroflexus [14]; 80 g/ha): 100%
- Post-emergence action against AVEFA in % (Avena fatua [15]; 20 g/ha): 90%
- Post-emergence action against AVEFA in % (Avena fatua [15]; 80 g/ha): 100%
- Post-emergence action against ECHCG in % (Echinochloa crus-galli [16]; 5 g/ha): 90%
- Post-emergence action against ECHCG in % (Echinochloa crus-galli [16]; 20 g/ha): 100%
- Post-emergence action against ECHCG in % (Echinochloa crus-galli [16]; 80 g/ha): 100%
- Post-emergence action against MATIN in % (Matricaria inodora [17]; 5 g/ha): 80%
- Post-emergence action against MATIN in % (Matricaria inodora [17]; 20 g/ha): 90%
- Post-emergence action against MATIN in % (Matricaria inodora [17]; 80 g/ha): 100%
- Post-emergence action against PHBPU in % (Pharbitis purpurea [18]; 20 g/ha): 90%
- Post-emergence action against PHBPU in % (Pharbitis purpurea [18]; 80 g/ha): 100%
- Post-emergence action against SETVI in % (Setaria viridis [19]; 20 g/ha): 80%
- Post-emergence action against SETVI in % (Setaria viridis [19]; 80 g/ha): 100%
- Post-emergence action against STEME in % (Stellaria media [20]; 5 g/ha): 100%
- Post-emergence action against STEME in % (Stellaria media [20]; 20 g/ha): 100%
- Post-emergence action against STEME in % (Stellaria media [20]; 80 g/ha): 100%
- Post-emergence action against VERPE in % (Veronica persica [21]; 80 g/ha): 90%
- Post-emergence action against VIOTR in % (Viola tricolor [22]; 5 g/ha): 80%
- Post-emergence action against VIOTR in % (Viola tricolor [22]; 20 g/ha): 90%
- Post-emergence action against VIOTR in % (Viola tricolor [22]; 80 g/ha): 100%

SMILES: CN(C(=O)c1c(Cl)ccc(C(=O)Nc2nnnn2C)c1Cl)c1ccccc1 [Example 1-398]
- Pre-emergence action against ABUTH (Abutilon theophrasti [1]; 20 g/ha): 100%
- Pre-emergence action against ABUTH (Abutilon theophrasti [1]; 80 g/ha): 100%
- Pre-emergence action against ABUTH (Abutilon theophrasti [1]; [25]): 100%
- Pre-emergence action against ALOMY (Alopecurus myosuroides [2]; 20 g/ha): 80%
- Pre-emergence action against ALOMY (Alopecurus myosuroides [2]; 80 g/ha): 100%
- Pre-emergence action against ALOMY (Alopecurus myosuroides [2]; 320 g/ha): 100%
- Pre-emergence action against AMARE (Amaranthus retroflexus [3]; 20 g/ha): 90%
- Pre-emergence action against AMARE (Amaranthus retroflexus [3]; 80 g/ha): 100%
- Pre-emergence action against AMARE (Amaranthus retroflexus [3]; 320 g/ha): 100%
- Pre-emergence action against AVEFA (Avena fatua [4]; 80 g/ha): 80%
- Pre-emergence action against AVEFA (Avena fatua [4]; 320 g/ha): 90%
- Pre-emergence action against CYPES (Cyperus esculentus; 80 g/ha): 80%
- Pre-emergence action against CYPES (Cyperus esculentus; 320 g/ha): 90%
- Pre-emergence action against ECHCG (Echinochloa crus-galli [5]; 80 g/ha): 80%
- Pre-emergence action against ECHCG (Echinochloa crus-galli [5]; 320 g/ha): 100%
- Pre-emergence action against MATIN (Matricaria inodora [6]; 20 g/ha): 90%
- Pre-emergence action against MATIN (Matricaria inodora [6]; 80 g/ha): 100%
- Pre-emergence action against MATIN (Matricaria inodora [6]; 320 g/ha): 100%
- Pre-emergence action against HORMU (Hordeum murinum [23]): 100%
- Pre-emergence action against LOLRI (Lolium rigidum): 90%
- Pre-emergence action against POLCO (Polygonum convolvulus): 100%
- Pre-emergence action against SETVI (Setaria viridis [8]; 80 g/ha): 100%
- Pre-emergence action against SETVI (Setaria viridis [8]; 320 g/ha): 100%
- Pre-emergence action against STEME (Stellaria media [9]; 20 g/ha): 90%
- Pre-emergence action against STEME (Stellaria media [9]; 80 g/ha): 100%
- Pre-emergence action against STEME (Stellaria media [9]; 320 g/ha): 100%
- Pre-emergence action against VERPE (Veronica persica [10]): 100%
- Pre-emergence action against VIOTR (Viola tricolor [11]; 80 g/ha): 80%
- Pre-emergence action against VIOTR (Viola tricolor [11]; 320 g/ha): 100%
- Post-emergence action against ABUTH (Abutilon theophrasti [12]; 20 g/ha): 100%
- Post-emergence action against ABUTH (Abutilon theophrasti [12]; 80 g/ha): 100%
- Post-emergence action against ALOMY (Alopecurus myosuroides [13]): 100%
- Post-emergence action against AMARE in % (Amaranthus retroflexus [14]; 5 g/ha): 80%
- Post-emergence action against AMARE in % (Amaranthus retroflexus [14]; 20 g/ha): 100%
- Post-emergence action against AMARE in % (Amaranthus retroflexus [14]; 80 g/ha): 100%
- Post-emergence action against AVEFA in % (Avena fatua [15]; 80 g/ha): 80%
- Post-emergence action against ECHCG in % (Echinochloa crus-galli [16]; 20 g/ha): 100%
- Post-emergence action against ECHCG in % (Echinochloa crus-galli [16]; 80 g/ha): 100%
- Post-emergence action against MATIN in % (Matricaria inodora [17]; 80 g/ha): 90%
- Post-emergence action against PHBPU in % (Pharbitis purpurea [18]; 20 g/ha): 80%
- Post-emergence action against PHBPU in % (Pharbitis purpurea [18]; 80 g/ha): 80%
- Post-emergence action against HORMU in % (Hordeum murinum [24]): 80%
- Post-emergence action against SETVI in % (Setaria viridis [19]; 80 g/ha): 100%
- Post-emergence action against STEME in % (Stellaria media [20]; 5 g/ha): 80%
- Post-emergence action against STEME in % (Stellaria media [20]; 20 g/ha): 90%
- Post-emergence action against STEME in % (Stellaria media [20]; 80 g/ha): 100%
- Post-emergence action against VERPE in % (Veronica persica [21]; 20 g/ha): 80%
- Post-emergence action against VERPE in % (Veronica persica [21]; 80 g/ha): 90%
- Post-emergence action against VIOTR in % (Viola tricolor [22]; 80 g/ha): 90%
